Measurements: BindingDB's records for doi:10.1111/cbdd.12751 (Shandong University, 2016)

Target: Gag-Pol polyprotein (Human immunodeficiency virus type 1 group M subtype B (isolate NY5), UniProt P12497)
Assay: HIV-1 RT Inhibition Assay
Settings: 37 °C
Method: A reverse transcriptase (RT) assay kit produced by Roche was selected for the RT inhibition assay. All the reagents for performing the RT reaction came with the kit, and the ELISA procedures for RT inhibition assay were carried out following the description in the kit protocol. Briefly, the reaction mixture containing template/primer complex, viral nucleotides (dNTPs), and RT in the incubation buffer with or without inhibitors was incubated for 1 h at 37 °C. After that, the reaction mixture was transferred to a streptavidincoated microtiter plate and incubated for another 1 h at 37 °C to make sure that retranscriptional cDNA chain consisted of biotin-labeled dNTPs bound to streptavidin. Then, unbound dNTPs were removed using washing buffer and anti-DIG-POD working solution was added. After incubation for 1 h at 37 °C, the DIG-labeled dNTPs incorporated into cDNA were bound to the anti-DIG-POD antibody. The unbound anti-DIG-PODs were removed.

Row | SMILES | IC50
1 | Cc1cc(C#N)cc(C)c1Oc1nc(Nc2ccc(C#N)cc2)nc(N)c1Br | 0.37 µM
2 | Cc1ccnc2c1NC(=O)c1cccnc1N2C1CC1 [BI-RG-587] | 0.69 µM
3 | NS(=O)(=O)c1ccc(NC(=O)CSc2nc3ncccc3n2-c2ccc(C3CC3)c3ccccc23)c(Br)c1 [N-(2-Bromo-4-sulfonamido-phenyl)-2-(1-(4-cyclopropylnaphthalen-1-yl)-1H-imidazo[4,5-b]pyridin-2-ylthio)acetamide (12)] | 1.5 µM
